Values after ≈ are worked out from the molar mass of the structure shown.
What was measured:
[1] = molecular target: SIK2 (Homo sapiens, UniProt Q9H0K1); assay: radiometric protein kinase assay (33PanQinase Activity Assay), SIK2; assay type: biochemical; details: ATP 1.0 μM, substrate RBER-CHKtide
[2] = system: MC38 tumour cells; assay: TNF-sensitised cell viability assay (CellTiter-Glo), MC38; assay type: cell-based, murine; details: Mus musculus, MC-38, read-out: MC38 IC50 (at 100 ng/ml rMuTNF); 100 ng/ml rMuTNF, 72 h
[3] = Kinetic solubility assay; assay type: physicochemical; details: aqueous buffer, kinetic from dmso stock; PBS buffer pH 7.4, 1.0% DMSO, 24 h at RT
Protocol: The Kinetic solubility assay was conducted as follows. 4 uL compound of the 50 mM DMSO stock was added to deep well plate containing 396 uL PBS buffer (pH 7.4). The DMSO content in the sample was 1.0%, and the compound concentration 500 μM. The sample plate was vortexed at 800 rpm for 24 h at RT on a thermomixer. At the end of the incubation period, the sample plate was centrifuged at 4000 rpm for 10 mins. 3 uL of supernatant was transferred to well containing 297 uL of ISTD in Acetonitrile water:50:50, v/v and analysed in LC-MS/MS against a calibration curve (CC).

[4] = Mouse hepatocyte stability; assay type: in vitro ADME; details: mouse hepatocytes, 37°C
Protocol: Determination of human and mice hepatocyte stability was conducted as follows. 200 uL of the respective hepatocyte cell suspension (2×10e6/ml) was preincubated at 37° C. for 10 min. Then, 200 uL of a 2 uM working stock of the test compound was added to the hepatocyte cell suspension, and the mixture was further incubated at 37° C. and 500 rpm. The reaction was stopped at 30, 60 and 120 min by precipitating 50 uL of the incubation mixture with 200 uL of acetonitrile. Samples were vortexed for 5 min at 1200 rpm and centrifuged at 4000 rpm for 10 min. Intrinsic clearance and half-life were analysed using LC-MS/MS.
LC-MS/MS was performed for all assays using a C18 column (50*4.6 mm, 5 um) for the CaCo2 assay, or a C18 column (50*4.6 mm, 4 um) for the other assays. The mobile phases used were 10 mM Ammonium Acetate with 0.1% Formic acid (aqueous) and 100% Acetonitrile (organic).

[5] = pharmacokinetic study, plasma level after single po or iv administration; assay type: in vivo, male CD1 mice; details: mice
Protocol: Screening PK properties of compounds of Formula (I) are additionally determined, including plasma and free plasma concentration, as well as Cmax. For example, the free concentration of compound after a dose of eg 30 mg/kg po (per os) administered mice can be determined for certain time points after administrations.
To further investigate PK properties of kinase inhibitors of Formula (I), the compounds are tested for in vivo drug exposure and potency in a full pharmacokinetic study with oral administration (per os, po).
The experimental procedure and the determination of the pharmacokinetic parameters are investigated after single administration of each compound per gavage in male CD1 mice (Intonation Research Laboratories (Hyderabad, India)). The compounds are diluted in 5% DMSO+5% Solutol+90% water. Plasma level (eg sampling 0.25 h; 0.5 h; 1 h; 1.5 h; 2 h; 4 h; 6 h; 12 h; 24 h after drug administration) of the compounds are analysed by LC-MS/MS and pharmacokinetic parameters are determined using non-compartmental analysis and nominal dose levels of eg 30 mg/kg po and 1 mg/kg iv. Three animals are analysed per time point and each mouse is used for three plasma samplings in total.

Sequence of SIK2 (Q9H0K1 whole entry): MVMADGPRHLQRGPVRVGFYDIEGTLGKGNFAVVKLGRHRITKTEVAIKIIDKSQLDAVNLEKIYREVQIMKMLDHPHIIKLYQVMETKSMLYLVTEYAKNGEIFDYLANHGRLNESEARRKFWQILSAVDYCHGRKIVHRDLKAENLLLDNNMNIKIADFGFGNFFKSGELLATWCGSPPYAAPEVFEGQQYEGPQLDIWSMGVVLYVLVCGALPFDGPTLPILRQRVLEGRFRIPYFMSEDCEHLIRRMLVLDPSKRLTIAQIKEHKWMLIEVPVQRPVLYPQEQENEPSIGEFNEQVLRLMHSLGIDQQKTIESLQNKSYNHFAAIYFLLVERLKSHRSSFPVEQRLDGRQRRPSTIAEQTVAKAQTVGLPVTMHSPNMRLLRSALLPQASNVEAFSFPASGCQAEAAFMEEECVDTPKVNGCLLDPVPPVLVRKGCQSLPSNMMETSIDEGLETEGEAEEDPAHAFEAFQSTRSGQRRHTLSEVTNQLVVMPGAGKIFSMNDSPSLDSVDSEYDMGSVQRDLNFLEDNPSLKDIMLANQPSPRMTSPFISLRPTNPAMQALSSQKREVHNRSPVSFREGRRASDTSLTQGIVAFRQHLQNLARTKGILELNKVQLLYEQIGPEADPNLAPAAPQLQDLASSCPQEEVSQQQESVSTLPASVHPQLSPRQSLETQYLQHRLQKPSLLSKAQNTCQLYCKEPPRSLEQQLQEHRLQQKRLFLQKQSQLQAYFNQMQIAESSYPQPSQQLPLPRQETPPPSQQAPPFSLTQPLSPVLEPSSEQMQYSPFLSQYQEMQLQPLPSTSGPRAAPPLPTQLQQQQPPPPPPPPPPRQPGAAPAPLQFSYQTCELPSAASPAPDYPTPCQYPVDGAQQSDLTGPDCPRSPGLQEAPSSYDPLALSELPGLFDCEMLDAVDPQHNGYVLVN

SMILES: COc1ccc(N2C(=O)N(c3c(C)csc3Cl)Cc3cnc(Nc4ccc(C5CCN(C)CC5)cc4OC)nc32)nc1 [AA1, 3-(2-chloro-4-methylthiophen-3-yl)-7-((2-methoxy-4-(1-methylpiperidin-4-yl)phenyl)amino)-l-(5-methoxypyridin-2-yl)-3,4-dihydropyrimido[4,5-d]pyrimidin-2(1H)-one]
- IC50 [1]: 100 to 200 nM
- IC50 [2]: 1000 to 1500 nM
- solubility kinetic at 24 h [3]: 6.9 µM (≈ 4.18 µg/mL)
- half-life at 1 uM [4]: 1.73 h
- compound detectable in plasma after 24 h ([5]; 1 mg/kg iv): detectable after 24 hours
- compound detectable in plasma after 24 h ([5]; 30 mg/kg po): detectable after 24 hours

From patent US20230192701A1, “BICYCLIC KINASE INHIBITORS AND USES THEREOF” (iOmx Therapeutics AG, priority 2020, published 2023)
